Reference: the CheMixHub viscosity set
Several values for one entry are separate records, joined by “and”; a condition that tells them apart may be missing. Identical values can stand only once.

Test: xn = mol fraction of the nth substance listed

CN(C)C=O + CO
Details | viscosity
293.15 K, 101 kPa, x2 = 0.0998 | 0.835 mPa·s
293.15 K, 101 kPa, x2 = 0.2 | 0.809 mPa·s
293.15 K, 101 kPa, x2 = 0.3 | 0.782 mPa·s
293.15 K, 101 kPa, x2 = 0.4002 | 0.754 mPa·s
293.15 K, 101 kPa, x2 = 0.5 | 0.723 mPa·s
293.15 K, 101 kPa, x2 = 0.6 | 0.693 mPa·s
293.15 K, 101 kPa, x2 = 0.6997 | 0.665 mPa·s
293.15 K, 101 kPa, x2 = 0.8 | 0.64 mPa·s
293.15 K, 101 kPa, x2 = 0.8998 | 0.613 mPa·s
298 K, 101.3 kPa, x2 = 0.1198 | 0.766 mPa·s
298 K, 101.3 kPa, x2 = 0.2267 | 0.739 mPa·s
298 K, 101.3 kPa, x2 = 0.4094 | 0.693 mPa·s
298 K, 101.3 kPa, x2 = 0.5596 | 0.655 mPa·s
298 K, 101.3 kPa, x2 = 0.6854 | 0.623 mPa·s
298 K, 101.3 kPa, x2 = 0.7922 | 0.596 mPa·s
298 K, 101.3 kPa, x2 = 0.884 | 0.573 mPa·s
298 K, 101.3 kPa, x2 = 0.9639 | 0.553 mPa·s
298.15 K, 101 kPa, x1 = 0.3048 | 0.568 mPa·s
298.15 K, 101 kPa, x2 = 0.0998 | 0.782 mPa·s
298.15 K, 101 kPa, x2 = 0.2 | 0.758 mPa·s
298.15 K, 101 kPa, x2 = 0.3 | 0.734 mPa·s
298.15 K, 101 kPa, x2 = 0.4002 | 0.705 mPa·s
298.15 K, 101 kPa, x2 = 0.5 | 0.678 mPa·s
298.15 K, 101 kPa, x2 = 0.6 | 0.649 mPa·s
298.15 K, 101 kPa, x2 = 0.6997 | 0.622 mPa·s
298.15 K, 101 kPa, x2 = 0.8 | 0.596 mPa·s
298.15 K, 101 kPa, x2 = 0.8998 | 0.572 mPa·s
303.15 K, 101 kPa, x1 = 0.0995 | 0.5458 mPa·s
303.15 K, 101 kPa, x1 = 0.2004 | 0.5714 mPa·s
303.15 K, 101 kPa, x1 = 0.3004 | 0.5986 mPa·s
303.15 K, 101 kPa, x1 = 0.3993 | 0.6269 mPa·s
303.15 K, 101 kPa, x1 = 0.5008 | 0.6547 mPa·s
303.15 K, 101 kPa, x1 = 0.5728 | 0.6716 mPa·s
303.15 K, 101 kPa, x1 = 0.6998 | 0.7023 mPa·s
303.15 K, 101 kPa, x1 = 0.8014 | 0.7263 mPa·s
303.15 K, 101 kPa, x1 = 0.8996 | 0.7515 mPa·s
303.15 K, 101 kPa, x2 = 0.0998 | 0.736 mPa·s
303.15 K, 101 kPa, x2 = 0.2 | 0.713 mPa·s
303.15 K, 101 kPa, x2 = 0.3 | 0.688 mPa·s
303.15 K, 101 kPa, x2 = 0.4002 | 0.663 mPa·s
303.15 K, 101 kPa, x2 = 0.5 | 0.674 mPa·s and 0.636 mPa·s
303.15 K, 101 kPa, x2 = 0.6 | 0.608 mPa·s
303.15 K, 101 kPa, x2 = 0.6997 | 0.584 mPa·s
303.15 K, 101 kPa, x2 = 0.8 | 0.559 mPa·s
303.15 K, 101 kPa, x2 = 0.8998 | 0.534 mPa·s
308.15 K, 101 kPa, x1 = 0.0995 | 0.5094 mPa·s
308.15 K, 101 kPa, x1 = 0.2004 | 0.5345 mPa·s
308.15 K, 101 kPa, x1 = 0.3004 | 0.5606 mPa·s
308.15 K, 101 kPa, x1 = 0.3993 | 0.5882 mPa·s
308.15 K, 101 kPa, x1 = 0.5008 | 0.6152 mPa·s
308.15 K, 101 kPa, x1 = 0.5728 | 0.6314 mPa·s
308.15 K, 101 kPa, x1 = 0.6998 | 0.6621 mPa·s
308.15 K, 101 kPa, x1 = 0.8014 | 0.6853 mPa·s
308.15 K, 101 kPa, x1 = 0.8996 | 0.7087 mPa·s
313.15 K, 101 kPa, x1 = 0.0995 | 0.4776 mPa·s
313.15 K, 101 kPa, x1 = 0.2004 | 0.5008 mPa·s
313.15 K, 101 kPa, x1 = 0.3004 | 0.5259 mPa·s
313.15 K, 101 kPa, x1 = 0.3993 | 0.5524 mPa·s
313.15 K, 101 kPa, x1 = 0.5008 | 0.5781 mPa·s
313.15 K, 101 kPa, x1 = 0.5728 | 0.5933 mPa·s
313.15 K, 101 kPa, x1 = 0.6998 | 0.6213 mPa·s
313.15 K, 101 kPa, x1 = 0.8014 | 0.644 mPa·s
313.15 K, 101 kPa, x1 = 0.8996 | 0.667 mPa·s
313.15 K, 101 kPa, x2 = 0.0998 | 0.655 mPa·s
313.15 K, 101 kPa, x2 = 0.2 | 0.635 mPa·s
313.15 K, 101 kPa, x2 = 0.3 | 0.612 mPa·s
313.15 K, 101 kPa, x2 = 0.4002 | 0.589 mPa·s
313.15 K, 101 kPa, x2 = 0.5 | 0.58 mPa·s and 0.565 mPa·s
313.15 K, 101 kPa, x2 = 0.6 | 0.54 mPa·s
313.15 K, 101 kPa, x2 = 0.6997 | 0.517 mPa·s
313.15 K, 101 kPa, x2 = 0.8 | 0.493 mPa·s
313.15 K, 101 kPa, x2 = 0.8998 | 0.47 mPa·s
318.15 K, 101 kPa, x1 = 0.0995 | 0.4467 mPa·s
318.15 K, 101 kPa, x1 = 0.2004 | 0.4692 mPa·s
318.15 K, 101 kPa, x1 = 0.3004 | 0.4936 mPa·s
318.15 K, 101 kPa, x1 = 0.3993 | 0.5191 mPa·s
318.15 K, 101 kPa, x1 = 0.5008 | 0.5439 mPa·s
318.15 K, 101 kPa, x1 = 0.5728 | 0.5587 mPa·s
318.15 K, 101 kPa, x1 = 0.6998 | 0.5861 mPa·s
318.15 K, 101 kPa, x1 = 0.8014 | 0.6075 mPa·s
318.15 K, 101 kPa, x1 = 0.8996 | 0.6304 mPa·s
323.15 K, 101 kPa, x1 = 0.0995 | 0.4174 mPa·s
323.15 K, 101 kPa, x1 = 0.2004 | 0.4387 mPa·s
323.15 K, 101 kPa, x1 = 0.3004 | 0.4617 mPa·s
323.15 K, 101 kPa, x1 = 0.3993 | 0.4864 mPa·s
323.15 K, 101 kPa, x1 = 0.5008 | 0.51 mPa·s
323.15 K, 101 kPa, x1 = 0.5728 | 0.5243 mPa·s
323.15 K, 101 kPa, x1 = 0.6998 | 0.5501 mPa·s
323.15 K, 101 kPa, x1 = 0.8014 | 0.5705 mPa·s
323.15 K, 101 kPa, x1 = 0.8996 | 0.5923 mPa·s
323.15 K, 101 kPa, x2 = 0.0998 | 0.588 mPa·s
323.15 K, 101 kPa, x2 = 0.2 | 0.569 mPa·s
323.15 K, 101 kPa, x2 = 0.3 | 0.549 mPa·s
323.15 K, 101 kPa, x2 = 0.4002 | 0.528 mPa·s
323.15 K, 101 kPa, x2 = 0.5 | 0.503 mPa·s and 0.506 mPa·s
323.15 K, 101 kPa, x2 = 0.6 | 0.483 mPa·s
323.15 K, 101 kPa, x2 = 0.6997 | 0.46 mPa·s
323.15 K, 101 kPa, x2 = 0.8 | 0.438 mPa·s
323.15 K, 101 kPa, x2 = 0.8998 | 0.415 mPa·s

c1ccccc1 + CO
viscosity [mPa·s]
Details | 293.15 K | 298.15 K | 303.15 K | 313.15 K | 323.15 K
101 kPa, x1 = 0.1598 | – | – | 0.564 | 0.491 | 0.411
101 kPa, x1 = 0.3449 | – | – | 0.563 | 0.507 | 0.405
101 kPa, x1 = 0.4474 | – | – | 0.559 | 0.478 | 0.414
101 kPa, x1 = 0.7425 | – | – | 0.546 | 0.469 | 0.411
101 kPa, x1 = 0.8277 | – | – | 0.54 | 0.49 | 0.413
101 kPa, x2 = 0.0504 | – | 0.581 | – | – | –
101 kPa, x2 = 0.1 | 0.622 | 0.563 | – | – | –
101 kPa, x2 = 0.152 | 0.615 | – | 0.534 | 0.468 | 0.416
101 kPa, x2 = 0.1998 | – | 0.553 | – | – | –
101 kPa, x2 = 0.2 | 0.613 | – | – | – | –
101 kPa, x2 = 0.272 | 0.613 | – | 0.532 | 0.461 | 0.414
101 kPa, x2 = 0.2982 | – | 0.56 | – | – | –
101 kPa, x2 = 0.4 | 0.619 | 0.561 | – | – | –
101 kPa, x2 = 0.444 | 0.619 | – | 0.536 | 0.469 | 0.415
101 kPa, x2 = 0.5 | – | 0.566 | – | – | –
101 kPa, x2 = 0.6 | 0.626 | 0.565 | – | – | –
101 kPa, x2 = 0.632 | 0.624 | – | 0.535 | 0.467 | 0.414
101 kPa, x2 = 0.7 | – | 0.56 | – | – | –
101 kPa, x2 = 0.766 | 0.619 | – | 0.534 | 0.466 | 0.412
101 kPa, x2 = 0.8 | 0.626 | – | – | – | –
101 kPa, x2 = 0.8009 | – | 0.557 | – | – | –
101 kPa, x2 = 0.9 | 0.61 | – | – | – | –
101 kPa, x2 = 0.901 | 0.604 | – | 0.527 | 0.464 | 0.411
101 kPa, x2 = 0.9013 | – | 0.553 | – | – | –
101 kPa, x2 = 0.95 | – | 0.551 | – | – | –
101.33 kPa, x1 = 0.04357 | 0.59 | – | 0.5121 | 0.4473 | 0.3935
101.33 kPa, x1 = 0.0572 | – | – | 0.562 | 0.5 | 0.415
101.33 kPa, x1 = 0.1598 | – | – | 0.564 | 0.491 | 0.411
101.33 kPa, x1 = 0.2216 | 0.6132 | – | 0.528 | 0.4585 | 0.4016
101.33 kPa, x1 = 0.2552 | – | – | 0.56 | 0.505 | 0.418
101.33 kPa, x1 = 0.3449 | – | – | 0.563 | 0.507 | 0.405
101.33 kPa, x1 = 0.4216 | 0.6197 | – | 0.5315 | 0.4613 | 0.4039
101.33 kPa, x1 = 0.4474 | – | – | 0.559 | 0.478 | 0.414
101.33 kPa, x1 = 0.603 | 0.6164 | – | 0.5296 | 0.4593 | 0.4034
101.33 kPa, x1 = 0.7425 | – | – | 0.546 | 0.469 | 0.411
101.33 kPa, x1 = 0.7816 | 0.6138 | – | 0.5278 | 0.4611 | 0.4073
101.33 kPa, x1 = 0.8277 | – | – | 0.54 | 0.49 | 0.413
101.33 kPa, x1 = 0.9285 | 0.6252 | – | 0.5399 | 0.4736 | 0.4198
